According to PubChem BioAssay (NCI):
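In this assay, cells in 96-well plates receive the compound at five concentrations for 48 hours. Endpoints are linearly interpolated between the surrounding concentrations. GI50 = concentration required for 50% inhibition of growth. Definition used: TGI = concentration required for complete inhibition of growth.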

Experiments:
Experiment in all cases: NCI anticancer screen, dose series, 48 h
[1] = test system: 786-0 renal
[2] = test system: A498 renal
[3] = test system: A549 NSCLC
[4] = test system: ACHN renal
[5] = test system: BT-549 breast
[6] = test system: CAKI-1 renal
[7] = test system: CCRF-CEM leukemia
[8] = test system: COLO 205 colon
[9] = test system: DU-145 prostate
[10] = test system: EKVX NSCLC
[11] = test system: HCC-2998 colon
[12] = test system: HCT-116 colon
[13] = test system: HCT-15 colon
[14] = test system: HL-60(TB) leukemia
[15] = test system: HOP-62 NSCLC
[16] = test system: HOP-92 NSCLC
[17] = test system: HS 578T breast
[18] = test system: HT29 colon
[19] = test system: IGROV1 ovarian
[20] = test system: K-562 leukemia
[21] = test system: KM12 colon
[22] = test system: LOX IMVI melanoma
[23] = test system: M14 melanoma
[24] = test system: MALME-3M melanoma
[25] = test system: MCF7 breast
[26] = test system: MDA-MB-231 breast
[27] = test system: MDA-MB-435
[28] = test system: MOLT-4 leukemia
[29] = test system: NCI-H226 lung
[30] = test system: NCI-H460 lung
[31] = test system: NCI-H522 lung
[32] = test system: NCI/ADR-RES ovarian
[33] = test system: OVCAR-3 ovarian
[34] = test system: OVCAR-4 ovarian
[35] = test system: OVCAR-5 ovarian
[36] = test system: OVCAR-8 ovarian
[37] = test system: PC-3 prostate
[38] = test system: RPMI-8226 leukemia
[39] = test system: RXF 393 renal
[40] = test system: SF-268 CNS
[41] = test system: SF-295 CNS
[42] = test system: SF-539 CNS
[43] = test system: SK-MEL-2 melanoma
[44] = test system: SK-MEL-28 melanoma
[45] = test system: SK-MEL-5 melanoma
[46] = test system: SK-OV-3 ovarian
[47] = test system: SN12C renal
[48] = test system: SNB-19 CNS
[49] = test system: SNB-75 CNS
[50] = test system: SR leukemia
[51] = test system: SW-620 colon
[52] = test system: T-47D breast
[53] = test system: TK-10 renal
[54] = test system: U251 CNS
[55] = test system: UACC-257 melanoma
[56] = test system: UACC-62 melanoma
[57] = test system: UO-31 renal

NS(=O)(=O)c1cccc(Nc2nc(SCC(=O)c3ccc([N+](=O)[O-])cc3)nc3ccccc23)c1
GI50 [1]: 48.5 µM
TGI [1]: > 100 µM
GI50 [2]: 38.4 µM
TGI [2]: > 100 µM
GI50 [3]: 32 µM
TGI [3]: > 100 µM
GI50 [4]: 30.6 µM
TGI [4]: > 100 µM
GI50 [5]: 11.3 µM
TGI [5]: 51.5 µM
GI50 [6]: 32.1 µM
TGI [6]: > 100 µM
GI50 [7]: 20.3 µM
TGI [7]: > 100 µM
GI50 [8]: 40.3 µM
TGI [8]: > 100 µM
GI50 [9]: 28.7 µM
TGI [9]: > 100 µM
GI50 [10]: 32.9 µM
TGI [10]: > 100 µM
GI50 [11]: 31.7 µM
TGI [11]: > 100 µM
GI50 [12]: 31.3 µM
TGI [12]: > 100 µM
GI50 [13]: 38.7 µM
TGI [13]: > 100 µM
GI50 [14]: 22.2 µM
TGI [14]: 64.3 µM
GI50 [15]: 28.8 µM
TGI [15]: > 100 µM
GI50 [16]: 14 µM
TGI [16]: > 100 µM
GI50 [17]: 35.2 µM
TGI [17]: > 100 µM
GI50 [18]: 38.8 µM
TGI [18]: > 100 µM
GI50 [19]: 24 µM
TGI [19]: > 100 µM
GI50 [20]: 23.6 µM
TGI [20]: > 100 µM
GI50 [21]: 37.6 µM
TGI [21]: > 100 µM
GI50 [22]: 31.4 µM
TGI [22]: > 100 µM
GI50 [23]: 31.6 µM
TGI [23]: > 100 µM
GI50 [24]: 44.5 µM
TGI [24]: > 100 µM
GI50 [25]: 12.4 µM
TGI [25]: > 100 µM
GI50 [26]: > 100 µM
TGI [26]: > 100 µM
GI50 [27]: 44.9 µM
TGI [27]: > 100 µM
GI50 [28]: 12.9 µM
TGI [28]: 45.1 µM
GI50 [29]: 21.2 µM
TGI [29]: 70.8 µM
GI50 [30]: 26.2 µM
TGI [30]: > 100 µM
GI50 [31]: 20.1 µM
TGI [31]: 89.6 µM
GI50 [32]: > 100 µM
TGI [32]: > 100 µM
GI50 [33]: 19.6 µM
TGI [33]: 72.9 µM
GI50 [34]: 26.6 µM
TGI [34]: > 100 µM
GI50 [35]: > 100 µM
TGI [35]: > 100 µM
GI50 [36]: 25.3 µM
TGI [36]: > 100 µM
GI50 [37]: 20.2 µM
TGI [37]: > 100 µM
GI50 [38]: 16.1 µM
TGI [38]: 83 µM
GI50 [39]: 23.2 µM
TGI [39]: > 100 µM
GI50 [40]: 43.7 µM
TGI [40]: > 100 µM
GI50 [41]: 38.3 µM
TGI [41]: > 100 µM
GI50 [42]: 31.3 µM
TGI [42]: > 100 µM
GI50 [43]: 14.4 µM
TGI [43]: 44 µM
GI50 [44]: 34.9 µM
TGI [44]: > 100 µM
GI50 [45]: 22.3 µM
TGI [45]: 88.1 µM
GI50 [46]: 63.2 µM
TGI [46]: > 100 µM
GI50 [47]: 40.9 µM
TGI [47]: > 100 µM
GI50 [48]: > 100 µM
TGI [48]: > 100 µM
GI50 [49]: > 100 µM
TGI [49]: > 100 µM
GI50 [50]: 21.1 µM
TGI [50]: > 100 µM
GI50 [51]: 64.2 µM
TGI [51]: > 100 µM
GI50 [52]: 9.95 µM
TGI [52]: 65.4 µM
GI50 [53]: 54.5 µM
TGI [53]: > 100 µM
GI50 [54]: 58.2 µM
TGI [54]: > 100 µM
GI50 [55]: 30.1 µM
TGI [55]: > 100 µM
GI50 [56]: 16.3 µM
TGI [56]: 37.3 µM
GI50 [57]: 32.6 µM
TGI [57]: > 100 µM
